{
  "source": "patent US12729377B2",
  "about": "“RNAi agents and compositions for inhibiting expression of angiopoietin-like 3 (ANGPTL3), and methods of use” (Arrowhead Pharmaceuticals, Inc., priority 2017, dated 2026)",
  "key": {"ANGPTL3 protein": {"tested_on": "ANGPTL3 protein", "test": "Example 10: serum ANGPTL3 protein by ELISA in mice", "type": "in vivo", "settings": "0.5 mg/kg single SC injection day 1, female C57bl/6 mice, n=3, ratio to D5W control", "experimental": "(§1) To assess the in vivo activity of further ANGPTL3 RNAi agents that are designed to target position 304 on the ANGPTL3 gene, six- to eight-week-old female C57bl/6 mice were used. Pre-dose serum samples were taken at day −1 after a four hour fast. At day 1, each mouse was given a single subcutaneous administration of 200 μl containing 0.5 mg/kg (mpk) of an ANGPTL3 RNAi agent in D5W (dextrose in 5% water), or control (D5W) with no RNAi agent, according to the dosing groups recited in Table 47.\n(§2) Each of the RNAi agents included a modified sequence and an N-acetyl-galactosamine-containing targeting ligand conjugated to the 5′ terminal end of the sense strand. (See Tables 3, 4, and 5 for modified sequences and targeting ligand structures). As noted above, each of the ANGPTL3 RNAi agents dosed in this study included nucleotide sequences designed to target the ANGPTL3 gene at position 304. The injections were performed between the skin and muscle (i.e. subcutaneous injections) into the loose skin over the neck and shoulder area. Three (3) mice in each group were tested (n=3). Serum was collected on days 8, 15, 22, 29, and for some groups on day 36 (i.e., Groups 1, 2, and 9-13 only). Mice were fasted for four hours prior to each collection. ANGPTL3 protein levels in serum were measured by ELISA assay (R&D Systems), according to the manufacturer's recommendations. Triglycerides, total cholesterol, high-density lipoprotein (HDL), and low-density lipoprotein (LDL) in serum were measured on a Cobas® Integra 400 (Roche Diagnostics), according to the manufacturer's recommendations.\n(§3) The ANGPTL3 protein levels, triglyceride levels, total cholesterol levels, HDL levels, and LDL levels for each animal were normalized. For normalization, the level of ANGPTL3 protein, triglyceride, HDL, and total cholesterol, respectively, for each animal at a time point, was divided by the pre-treatment level of expression in that animal (in this case at day −1) to determine the ratio of expression “normalized to pre-treatment.” Expression at a specific time point was then normalized to the D5W control group by dividing the “normalized to pre-treatment” ratio for an individual animal by the mean “normalized to pretreatment” ratio of all mice in the D5W control group."}, "ANGPTL3 gene [1]": {"tested_on": "ANGPTL3 gene", "test": "Example 10: serum LDL in mice", "type": "in vivo, C57bl/6 mice", "settings": "0.5 mg/kg sc", "experimental": "as §1, §2, §3"}, "ANGPTL3 gene [2]": {"tested_on": "ANGPTL3 gene", "test": "Example 10: serum HDL in mice", "type": "in vivo", "settings": "0.5 mg/kg single SC injection day 1, female C57bl/6 mice, n=3, ratio to D5W control", "experimental": "as §1, §2, §3"}, "ANGPTL3 gene [3]": {"tested_on": "ANGPTL3 gene", "test": "Example 10: serum total cholesterol in mice", "type": "in vivo", "settings": "0.5 mg/kg single SC injection day 1, female C57bl/6 mice, n=3, ratio to D5W control", "experimental": "as §1, §2, §3"}, "ANGPTL3 gene [4]": {"tested_on": "ANGPTL3 gene", "test": "Example 10: serum triglycerides in mice", "type": "in vivo", "settings": "0.5 mg/kg single SC injection day 1, female C57bl/6 mice, n=3, ratio to D5W control", "experimental": "as §1, §2, §3"}},
  "note": "In the oligonucleotide strings, read from the 5' end, every base follows the letter of its sugar. An asterisk marks phosphorothioate; unmarked linkages are phosphodiester. Other units and linkages are bracketed, terminal groups are in braces. A string of capitals states the bases alone. {NAG37} = N-acetyl-galactosamine tridentate targeting ligand (NAG37); [invAb] = inverted abasic unit; m = 2'-O-methyl; f = 2'-fluoro",
  "data": [
    {"substance": "AD05791: RNAi agent duplex: antisense AM07624-AS, sense AM07234-SS (antisense mU*fA*mCfUmGfAmUfCmAfAmAfUmAfUmGfUmUfGmA*fG*mC; sense {NAG37}*[invAb]*mGmCmUmCmAmAmCmAfUfAfUmUmUmGmAmUmCmAmGmUmA*[invAb])", "values": [
      {"measurement": "Average ANGPTL3 Protein Normalized to Pre-Treatment and Control", "setting": "ANGPTL3 protein; Day 8", "value": 0.145},
      {"measurement": "Average ANGPTL3 Protein Normalized to Pre-Treatment and Control", "setting": "ANGPTL3 protein; Day 15", "value": 0.170},
      {"measurement": "Average ANGPTL3 Protein Normalized to Pre-Treatment and Control", "setting": "ANGPTL3 protein; Day 22", "value": 0.214},
      {"measurement": "Average ANGPTL3 Protein Normalized to Pre-Treatment and Control", "setting": "ANGPTL3 protein; Day 29", "value": 0.246},
      {"measurement": "Avg LDL Normalized to Pre-Treatment and Control", "setting": "ANGPTL3 gene [1]; Day 8", "value": 0.878},
      {"measurement": "Avg LDL Normalized to Pre-Treatment and Control", "setting": "ANGPTL3 gene [1]; Day 15", "value": 0.744},
      {"measurement": "Avg LDL Normalized to Pre-Treatment and Control", "setting": "ANGPTL3 gene [1]; Day 22", "value": 0.848},
      {"measurement": "Avg LDL Normalized to Pre-Treatment and Control", "setting": "ANGPTL3 gene [1]; Day 29", "value": 0.755},
      {"measurement": "Average HDL Normalized to Pre-Treatment and Control", "setting": "ANGPTL3 gene [2]; Day 8", "value": 0.632},
      {"measurement": "Average HDL Normalized to Pre-Treatment and Control", "setting": "ANGPTL3 gene [2]; Day 15", "value": 0.674},
      {"measurement": "Average HDL Normalized to Pre-Treatment and Control", "setting": "ANGPTL3 gene [2]; Day 22", "value": 0.563},
      {"measurement": "Average HDL Normalized to Pre-Treatment and Control", "setting": "ANGPTL3 gene [2]; Day 29", "value": 0.679},
      {"measurement": "Average Total Cholesterol Normalized to Pre-Treatment and Control", "setting": "ANGPTL3 gene [3]; Day 8", "value": 0.664},
      {"measurement": "Average Total Cholesterol Normalized to Pre-Treatment and Control", "setting": "ANGPTL3 gene [3]; Day 15", "value": 0.694},
      {"measurement": "Average Total Cholesterol Normalized to Pre-Treatment and Control", "setting": "ANGPTL3 gene [3]; Day 22", "value": 0.631},
      {"measurement": "Average Total Cholesterol Normalized to Pre-Treatment and Control", "setting": "ANGPTL3 gene [3]; Day 29", "value": 0.677},
      {"measurement": "Average Triglycerides Normalized to Pre-Treatmen and Control", "setting": "ANGPTL3 gene [4]; Day 8", "value": 1.125},
      {"measurement": "Average Triglycerides Normalized to Pre-Treatmen and Control", "setting": "ANGPTL3 gene [4]; Day 15", "value": 0.930},
      {"measurement": "Average Triglycerides Normalized to Pre-Treatmen and Control", "setting": "ANGPTL3 gene [4]; Day 22", "value": 1.631},
      {"measurement": "Average Triglycerides Normalized to Pre-Treatmen and Control", "setting": "ANGPTL3 gene [4]; Day 29", "value": 0.854}
    ]}
  ]
}
